# In paper PMC2895764 (Journal of molecular biology, 2010):
# Legend:
# NIH 3T3 cell = assay: Reactivation of K-ras-mediated epigenetic silencing of Fas gene; assay type: cell-based
# G9a-like protein (GLP) = conditions: cited from earlier work
SMILES,reactivation (derepression) of Ras-mediated epigenetic silencing of Fas (NIH 3T3 cell),IC50 against GLP (G9a-like protein (GLP))
"Nc1ncn([C@H]2C[C@H](O)[C@@H](CO)O2)c(=O)n1 [5-aza, 5-aza-2′-deoxycytidine]",derepressed,–
COc1cc2nc(N3CCCN(C)CC3)nc(NC3CCN(Cc4ccccc4)CC3)c2cc1OC [BIX-01294],derepressed,low μM range
